Activity calls are given as the source filed them. No cut-off for these calls is given here.

Series [1] deals with Glioblastoma stem cell. Kind of series: Inhibition of cell proliferation of human Glioblastoma stem cell assessed as reduction in viable cell number at 500 nM measured after 72 hrs by trypan blue exclusion assay. It is filed as functional, cell-based.
Series [2] relates to Glioblastoma cell line. Briefly: Antitumor activity against human Glioblastoma stem cell xenografted in mouse model assessed as suppression of tumor growth by measuring luminescence signals at 10 mg/kg, ip administered 3 times in a week for and measured after 3 weeks by IVIS Lumina XR imaging system. It is filed as functional, organism-based. Background: Xenograft models place foreign cells or tissue in a host animal.

The test system of series [3] is Glioblastoma cell line. Briefly: Antitumor activity against human Glioblastoma stem cell xenografted in mouse model assessed as improvement in event-free survival rate at 10 mg/kg, ip administered 3 times in a week for 40 days. It is filed as functional, organism-based. The conditions noted are these: time 40.0 day.
Series [4] relates to U-251. Kind of series: Synergistic antiproliferative activity against human U-251 cells incubated for 6 days in presence of temozolomide by trypan blue staining based automated cell counter analysis. The following applies: U-251, 144 h, time 6 day, read-out: ED50 (the source's name). It is filed as functional.
Series [5] deals with Glioblastoma stem cell. Briefly: Inhibition of cell proliferation of human Glioblastoma stem cell assessed as reduction in viable cell number at 100 to 500 nM measured after 72 hrs by trypan blue exclusion assay. The class given is functional, cell-based. The conditions noted are these: dose 100-500 nM.
Series [6] concerns U-251. Briefly: Synergistic antiproliferative activity against human U-251 cells assessed as combination index at ED50 concentration incubated for 6 days in presence of temozolomide by trypan blue staining based automated cell counter analysis. It is filed as functional. The conditions noted are these: time 6 day.
Series [7] has as its system U-251. Kind of series: Synergistic antiproliferative activity against human U-251 cells assessed as combination index at ED75 concentration incubated for 6 days in presence of temozolomide by trypan blue staining based automated cell counter analysis. The class given is functional. The conditions noted are these: time 6 day.
The test system of series [8] is Glioblastoma stem cell. Kind of series: Activation of AMPK in human Glioblastoma stem cell assessed as inhibition of cell growth at 500 nM measured after 48 hrs. The class given is cell-based.
Series [9] has as its system Glioblastoma stem cell. Kind of series: Activation of AMPK in human Glioblastoma stem cell assessed as increase in AMPK phosphorylation level at 500 nM measured after 48 hrs. It is filed as cell-based.
In series [10] the test system is Glioblastoma stem cell. Briefly: Activation of AMPK in human Glioblastoma stem cell assessed as decrease in intracellular ATP level at 500 nM measured after 48 hrs by celltiter-glo luminescent cell viability assay. The class given is cell-based. The conditions noted are these: filed as activator. For orientation: In ATP-based viability assays light output follows the ATP content of the culture.

In series [11] the test system is Glioblastoma stem cell. Briefly: Activation of AMPK in human Glioblastoma stem cell assessed as increase in intracellular AMP level at 500 nM measured after 48 hrs by AMP-Glo assay. It is filed as cell-based. The conditions noted are these: filed as activator.
In series [12] the test system is Glioblastoma stem cell. Kind of series: Activation of AMPK in human Glioblastoma stem cell assessed as increase in AMP/ATP ratio at 500 nM measured after 48 hrs. The conditions noted are these: filed as activator. The class given is cell-based.
Series [13] has as its system SW48. Kind of series: Antitumor activity against human SW48 cells xenografted in CB-17 SCID mouse assessed as reduction in tumor size at 20 mg/kg administered daily and measured after 3 weeks by vernier caliper method (reference value: 997+/-180 mm3). The class given is functional.
A short description of series [14]: Toxicity in CB-17 SCID mouse xenografted with human SW48 cells assessed as drug tolerance at 20 mg/kg administered daily and measured after 3 weeks. The class given is organism-based. The following applies: in vivo, 504 h.
Series [15] is described as follows: Toxicity in CB-17 SCID mouse xenografted with human SW48 cells assessed as body weigh loss at 20 mg/kg administered daily and measured after 3 weeks. It is filed as organism-based. The conditions noted are these: in vivo, 504 h.
Series [16] can be described thus: Antiproliferative activity against human Glioblastoma stem cell assessed as reduction in cell count at 100 to 500 nM measured after 72 hrs by trypan blue exclusion assay. The class given is functional. The conditions noted are these: dose 100-500 nM.

With `COCCOCCOCCOCCCCCCCCCCCCNC(=O)c1cscc1Br`, the inhibition entry in series [1] was “Active”.
`CCCCCCCCCCOCCOCCOCCOCCCCCCCCCCCCNC(=O)c1ccsc1`: the outcome in series [2], in series [3], in series [8] (filed as activator), in series [9] (filed as activator), in series [10] and in [11] was Active. Besides, the outcome in series [12] was Active. The EC50 in [4] came to 43 nM. For the same compound, the inhibition result in series [5] was “Active”. Also, the CI is reported as 0.325 in series [6] and 0.765 in series [7]. Further, the results for the Activity in series [13], in series [14] and in series [15] were 352 mm3, “Non-Toxic” and “Non-Toxic”, respectively.
As for `COCCOCCOCCOCCCCCCCCCCCCNC(=O)c1ccsc1`, the inhibition result in series [1] is “Active”. In addition, the Activity in series [16] is 483000. The inhibition entry in series [5] was “inactive”.
In the case of `COCCOCCOCCOCCCCCCCCCCCCNC(=O)c1cscc1C`, the inhibition result in series [5] is “inactive”.
In the case of `COCCOCCOCCOCCCCCCCCCCCCNC(=O)c1ccsc1C`, in series [5], the inhibition entry was “inactive”.
Take `CCCCCCOCCOCCOCCOCCCCCCCCCCCCNC(=O)c1ccsc1`: the inhibition entry in [5] was “inactive”.
`COCCOCCOCCOCCCCCCCCCCCCNC(=O)c1csc(C)c1`: the inhibition entry in series [5] was “inactive”. Also, the outcome in series [8] and in series [9] was inactive.
On to `CCCOCCOCCOCCOCCCCCCCCCCCCNC(=O)c1ccsc1`, for which, in series [1], the inhibition entry was “Active”. Besides, in series [5], the inhibition entry is “inactive”.
With `O=C(NCCCCCCCCCCCCOCCOCCOCCO)c1ccsc1`, the inhibition result in series [5] was “inactive”.
With `CCCCCCCCCCCC[C@@H](O)[C@@H]1CC[C@@H]([C@H](O)CCCCCCCCCCNC(=O)c2ccsc2)O1`, in [4], the EC50 worked out at 179 nM. Also, the Activity in [16] was determined as 153000. Moreover, the CI in series [6] worked out at 0.972.
For the compound `CCCCCCCCCOCCOCCOCCOCCCCCCCCCCCCNC(=O)c1ccsc1`, the inhibition entry in series [5] was “Active”. In addition, the outcome in [8] (filed as activator) and in series [9] (filed as activator) was Active.
As to `COCCOCCOCCOCCCCCCCCCCCCNC(=O)c1csc(Br)c1`, the inhibition result in series [5] was “inactive”.

For the origin of these results see ChEMBL document CHEMBL5338755, “Thiophene Carboxamide Analogs with Long Alkyl Chains Comprising Ethylene Glycol Units Inhibit Glioblastoma Cell Proliferation by Activating AMPK” (J Med Chem, 2023).
